# Test results: patent publication US12257247B2 (Monte Rosa Therapeutics AG, priority 2023, dated 2025)
# Where two headings read alike, the source gives them in different places.
# Molecular target: T1, VAV1 (Homo sapiens, UniProt P15498+Q96SW2)
# T1 construct: A heterozygous VAV1 C-terminal HiBiT knock-in pool was generated at Monte Rosa Therapeutics from a clonal Jurkat cell; endogenous in cells; host or cells: Jurkat clone stably expressing LgBiT, homozygous GSPT1-G575N; heterozygous VAV1-HiBiT knock-in pool
# Experiment: VAV1 degradation activity, VAV1-HiBiT knock-in Jurkat luminescence assay (Example A, Table 1)
# Assay type: cell-based
# Conditions: VAV1-HiBiT knock-in Jurkat cells, luminescence read at 6 and 24 hours; for Dmax: Jurkat
# Outline: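 Jurkat cells carrying VAV1-HiBiT knock-in, plated in RPMI/10% FBS with Endurazine live-cell substrate and pre-incubated ~16 h at 37° C. Compound dosed from 10 μM stock; luminescence read 6 and 24 h later. Response normalised to plate negative/positive controls, EC50 from 3-parameter logistic fit (hillslope 1).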
# [1] = read-out: VAV1 DC50 (nM), class
SMILES,Dmax (read-out: VAV1 Dmax %),"Dmax (read-out: VAV1 Dmax %, class)",DC50 (read-out: VAV1 DC50),DC50 [1]
"O=C1CCC(c2cccc(-c3ccc(NC(=O)c4ccno4)cc3)c2Cl)C(=O)N1 (centres unmarked) [Compound 228, N-(2′-chloro-3′-(2,6-dioxopiperidin-3-yl)-[1,1′-biphenyl]-4-yl)isoxazole-5-carboxamide]",73.5%,60 to 90%,190 nM,100 to 1000 nM
"O=C1CCC(c2cccc(-c3ccc(CC4COC4)cc3)c2Cl)C(=O)N1 (centres unmarked) [Compound 233, 3-(2-chloro-4′-(oxetan-3-ylmethyl)-[1,1′-biphenyl]-3-yl)piperidine-2,6-dione]",92%,> 90%,16.1 nM,≤ 100 nM
"O=C1CCC(c2cccc(-c3ccc(CC(=O)N4CCCC4)cc3)c2Cl)C(=O)N1 (centres unmarked) [Compound 235, 3-(2-chloro-4′-(2-oxo-2-(pyrrolidin-1-yl)ethyl)-[1,1′-biphenyl]-3-yl)piperidine-2,6-dione]",97.1%,> 90%,3.87 nM,≤ 100 nM
"O=C1CCC(c2cccc(-c3ccc(N4C(=O)CCCC4C(F)(F)F)cc3)c2Cl)C(=O)N1 (centres unmarked) [Compound 244, 3-(2-chloro-4′-(2-oxo-6-(trifluoromethyl)piperidin-1-yl)-[1,1′-biphenyl]-3-yl)piperidine-2,6-dione]",96.5%,> 90%,8.36 nM,≤ 100 nM
"O=C1CCC(c2cccc(-c3ccc(NC(=O)N4CCCC4)cc3)c2Cl)C(=O)N1 (centres unmarked) [Compound 248, N-(2′-chloro-3′-(2,6-dioxopiperidin-3-yl)-[1,1′-biphenyl]-4-yl)pyrrolidine-1-carboxamide]",84.4%,60 to 90%,26.3 nM,≤ 100 nM
"Cn1ccc(CCc2ccc(-c3cccc(C4CCC(=O)NC4=O)c3Cl)cn2)n1 (centres unmarked) [Compound 249, 3-(2-chloro-3-(6-(2-(1-methyl-1H-pyrazol-3-yl)ethyl)pyridin-3-yl)phenyl)piperidine-2,6-dione]",48.9%,< 60%,7400 nM,> 1000 nM
"Cn1ccc(COc2ccc(-c3cccc(C4CCC(=O)NC4=O)c3Cl)cn2)n1 (centres unmarked) [Compound 251, 3-(2-chloro-3-(6-((1-methyl-1H-pyrazol-3-yl)methoxy)pyridin-3-yl)phenyl)piperidine-2,6-dione]",73.8%,60 to 90%,354 nM,100 to 1000 nM
O=C1CCC(c2cccc(-c3ccc(CN4CCc5ocnc5C4=O)cc3)c2Cl)C(=O)N1 (centres unmarked) [Compound 252],82.8%,60 to 90%,54.8 nM,≤ 100 nM
O=C1CCC(c2cccc(-c3ccc(CN4C(=O)CCn5nccc54)cc3)c2Cl)C(=O)N1 (centres unmarked) [Compound 253],87.7%,60 to 90%,29.6 nM,≤ 100 nM
CN1CC(=O)N(Cc2ccc(-c3cccc(C4CCC(=O)NC4=O)c3Cl)cc2)c2cnccc21 (centres unmarked) [Compound 256],75.8%,60 to 90%,213 nM,100 to 1000 nM
CN1CC(=O)N(Cc2ccc(-c3cccc(C4CCC(=O)NC4=O)c3Cl)cc2)CC1(C)C (centres unmarked) [Compound 257],94.2%,> 90%,9.66 nM,≤ 100 nM
O=C1CCC(c2cccc(-c3ccc(CN4CC(C(F)(F)F)OCC4=O)cc3)c2Cl)C(=O)N1 (centres unmarked) [Compound 258],94.5%,> 90%,12.6 nM,≤ 100 nM
CN1CC(=O)N(Cc2ccc(-c3cccc(C4CCC(=O)NC4=O)c3Cl)cc2)CC12COC2 (centres unmarked) [Compound 259],90%,> 90%,28.1 nM,≤ 100 nM
O=C1CCC(c2cccc(-c3ccc(CN4CC5CCCN5CC4=O)cc3)c2Cl)C(=O)N1 (centres unmarked) [Compound 260],83.9%,60 to 90%,193 nM,100 to 1000 nM

# Other lines, results leading:
Dmax (read-out: VAV1 Dmax %),"Dmax (read-out: VAV1 Dmax %, class)",DC50 (read-out: VAV1 DC50),DC50 [1],SMILES
82.7%,60 to 90%,79.3 nM,≤ 100 nM,"O=C1CCC(c2cccc(-c3ccc(NC(=O)c4ccon4)cc3)c2Cl)C(=O)N1 (centres unmarked) [Compound 229, N-(2′-chloro-3′-(2,6-dioxopiperidin-3-yl)-[1,1′-biphenyl]-4-yl)isoxazole-3-carboxamide]"
58.5%,< 60%,2090 nM,> 1000 nM,"O=C1CCC(c2cccc(-c3ccc(C(=O)Nc4ccon4)cc3)c2Cl)C(=O)N1 (centres unmarked) [Compound 230, 2′-chloro-3′-(2,6-dioxopiperidin-3-yl)-N-(isoxazol-3-yl)-[1,1′-biphenyl]-4-carboxamide]"
90.1%,> 90%,18.4 nM,≤ 100 nM,"CC(C)(c1ccc(-c2cccc(C3CCC(=O)NC3=O)c2Cl)cc1)n1ccccc1=O (centres unmarked) [Compound 231, 3-(2-chloro-4′-(2-(2-oxopyridin-1(2H)-yl)propan-2-yl)-[1,1′-biphenyl]-3-yl)piperidine-2,6-dione]"
98.5%,> 90%,2.8 nM,≤ 100 nM,"O=C1CCC(c2cccc(-c3ccc(N4C(=O)CCCC45CC5)cc3)c2Cl)C(=O)N1 (centres unmarked) [Compound 232, 3-(2-chloro-4′-(5-oxo-4-azaspiro[2.5]octan-4-yl)-[1,1′-biphenyl]-3-yl)piperidine-2,6-dione]"
75.8%,60 to 90%,127 nM,100 to 1000 nM,"O=C1CCC(c2cccc(-c3ccc(-n4ccccc4=O)cc3)c2F)C(=O)N1 (centres unmarked) [Compound 234, 3-(2-fluoro-4′-(2-oxopyridin-1(2H)-yl)-[1,1′-biphenyl]-3-yl)piperidine-2,6-dione]"
93.5%,> 90%,31.3 nM,≤ 100 nM,"O=C1CCC(c2cccc(-c3ccc(-n4ccc(C(F)(F)F)cc4=O)cc3)c2Cl)C(=O)N1 (centres unmarked) [Compound 236, 3-(2-chloro-4′-(2-oxo-4-(trifluoromethyl)pyridin-1(2H)-yl)-[1,1′-biphenyl]-3-yl)piperidine-2,6-dione]"
92.7%,> 90%,35.8 nM,≤ 100 nM,"O=C1CCC(c2cccc(-c3ccc(-n4cc(C(F)(F)F)ccc4=O)cc3)c2Cl)C(=O)N1 (centres unmarked) [Compound 237, 3-(2-chloro-4′-(2-oxo-5-(trifluoromethyl)pyridin-1(2H)-yl)-[1,1′-biphenyl]-3-yl)piperidine-2,6-dione]"
98.7%,> 90%,2.24 nM,≤ 100 nM,"O=C1CCC(c2cccc(-c3ccc(-n4c(C(F)F)cccc4=O)cc3)c2Cl)C(=O)N1 (centres unmarked) [Compound 238, 3-(2-chloro-4′-(6-(difluoromethyl)-2-oxopyridin-1(2H)-yl)-[1,1′-biphenyl]-3-yl)piperidine-2,6-dione]"
63.4%,60 to 90%,341 nM,100 to 1000 nM,"O=C1CCC(c2cccc(-c3ccc(Cn4ccccc4=O)cc3)c2)C(=O)N1 (centres unmarked) [Compound 239, 3-(4′-((2-oxopyridin-1(2H)-yl)methyl)-[1,1′-biphenyl]-3-yl)piperidine-2,6-dione]"
94.4%,> 90%,77.1 nM,≤ 100 nM,"Cc1c(-c2ccc(-n3ccccc3=O)cc2)cccc1C1CCC(=O)NC1=O (centres unmarked) [Compound 240, 3-[2-methyl-3-[4-(2-oxo-1-pyridyl)phenyl]phenyl]piperidine-2,6-dione]"
77%,60 to 90%,920 nM,100 to 1000 nM,"O=C1CCC(c2cccc(-c3ccc(C4(n5ccccc5=O)CC4)cc3)c2Cl)C(=O)N1 (centres unmarked) [Compound 241, 3-[2-chloro-3-[4-[1-(2-oxo-1-pyridyl)cyclopropyl]phenyl]phenyl]piperidine-2,6-dione]"
91.5%,> 90%,68.4 nM,≤ 100 nM,"O=C1CCC(c2cccc(-c3ccc(-n4c(F)cccc4=O)cc3)c2Cl)C(=O)N1 (centres unmarked) [Compound 242, 3-(2-chloro-4′-(6-fluoro-2-oxopyridin-1(2H)-yl)-[1,1′-biphenyl]-3-yl)piperidine-2,6-dione]"
56.8%,< 60%,4220 nM,> 1000 nM,"Cc1c(-c2ccc(Cn3ccccc3=O)cc2)cccc1C1CCC(=O)NC1=O (centres unmarked) [Compound 243, 3-[2-methyl-3-[4-[(2-oxo-1-pyridyl)methyl]phenyl]phenyl]piperidine-2,6-dione]"
95.2%,> 90%,17.5 nM,≤ 100 nM,"O=C1CCC(c2cccc(-c3ccc(-n4ccc(F)cc4=O)cc3)c2Cl)C(=O)N1 (centres unmarked) [Compound 245, 3-[2-chloro-3-[4-(4-fluoro-2-oxo-1-pyridyl)phenyl]phenyl]piperidine-2,6-dione]"
94.3%,> 90%,17.5 nM,≤ 100 nM,"O=C1CCC(c2cccc(-c3ccc(-n4cc(F)ccc4=O)cc3)c2Cl)C(=O)N1 (centres unmarked) [Compound 246, 3-(2-chloro-4′-(5-fluoro-2-oxopyridin-1(2H)-yl)-[1,1′-biphenyl]-3-yl)piperidine-2,6-dione]"
95.4%,> 90%,5.38 nM,≤ 100 nM,CN1CCCN(c2ccc(-c3cccc(C4CCC(=O)NC4=O)c3Cl)cc2)C1=O (centres unmarked) [Compound 247]
96.2%,> 90%,11.2 nM,≤ 100 nM,CC1Oc2ccncc2N(Cc2ccc(-c3cccc(C4CCC(=O)NC4=O)c3Cl)cc2)C1=O (centres unmarked) [Compound 254]
89.5%,60 to 90%,11 nM,≤ 100 nM,CN1CC(=O)N(Cc2ccc(-c3cccc(C4CCC(=O)NC4=O)c3Cl)cc2)c2cccnc21 (centres unmarked) [Compound 255]
